Measured values from US7638531B2, “Phenoxypiperidines and analogs thereof useful as histamine H3 antagonists” (Schering Corporation, priority 2005, dated 2009).

Key:
mice fed a high-fat diet = test: Diet-induced obesity in mice; format: in vivo; conditions: high-fat diet days 0 to 4, 10 mg/kg by gavage once daily for four days, versus vehicle control
Protocol: Lean mice (male, approx. 5 weeks of age, purchased from The Jackson Laboratory, Bar Harbor, Me.) were maintained in individual cages at 22° C. on a 12:12 hr light/dark cycle. The “treated” mice (N=12) were administered a Thiazole Derivative (10 mg/kg) by gavage once daily for four consecutive days. Control mice (N=12) were administered vehicle only, once daily for four days. Both control and treated mice were fed a high-fat diet from days 0 to 4 and body weight and food intake was monitored daily. The percent inhibition for weight gain and food intake was calculated by comparing the increase in weight gain and food intake in the treated mice to the increase in weight gain and food intake in the control mice.

[1] = target: T1, recombinant human H3 receptor, expressed in HEK-293 cells (Homo sapiens, UniProt Q9Y5N1); test: H3-receptor binding assay, recombinant human receptor; conditions: recombinant human receptor in HEK-293 membranes; 3 nM [3H]R-α-methyl histamine or [3H]Nα-methyl histamine, 30° C., 30 min
T1 construct: expressed in transfected cells; host or cells: HEK-293 (human embryonic kidney) cells
T1 sequence (Q9Y5N1 whole entry): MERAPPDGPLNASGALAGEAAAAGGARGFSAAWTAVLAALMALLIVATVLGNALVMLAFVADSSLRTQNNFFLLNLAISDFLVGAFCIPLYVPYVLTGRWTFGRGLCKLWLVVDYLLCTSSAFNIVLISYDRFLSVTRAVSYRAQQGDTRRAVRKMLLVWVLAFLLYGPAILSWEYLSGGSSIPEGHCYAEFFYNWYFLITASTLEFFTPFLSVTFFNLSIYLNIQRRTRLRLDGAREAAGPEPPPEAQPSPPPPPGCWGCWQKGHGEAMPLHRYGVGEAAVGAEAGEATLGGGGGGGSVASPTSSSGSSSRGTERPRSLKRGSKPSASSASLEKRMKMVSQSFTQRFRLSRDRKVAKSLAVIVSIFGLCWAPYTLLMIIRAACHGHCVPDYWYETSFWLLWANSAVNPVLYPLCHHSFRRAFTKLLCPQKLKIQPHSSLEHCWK
Protocol: (§1) The source of the H3 receptors in this experiment was guinea pig brain. Alternatively, the source of H3 receptors was recombinant human receptor, expressed in HEK-293 (human embryonic kidney) cells.
(§2) All compounds to be tested were dissolved in DMSO and then diluted into the binding buffer (50 mM Tris, pH 7.5) such that the final concentration was 2 μg/ml with 0.1% DMSO. Membranes were then added (400 μg of protein, 5 μg in the case of recombinant human receptor) to the reaction tubes. The reaction was started by the addition of 3 nM [^3H]R-α-methyl histamine (8.8 Ci/mmol) or 3 nM [^3H]N^α-methyl histamine (80 Ci/mmol) and continued under incubation at 30° C. for 30 min. Bound ligand was separated from unbound ligand by filtration, and the amount of radioactive ligand bound to the membranes was quantitated by liquid scintillation spectrometry. All incubations were performed in duplicate and the standard error was always less than 10%. Compounds that inhibited more than 70% of the specific binding of radioactive ligand to the receptor were serially diluted to determine a Ki (nM).

[2] = target: T2, H3 receptors, guinea pig brain (Cavia porcellus, UniProt Q9JI35); test: H3-receptor binding assay, guinea pig brain; conditions: guinea pig brain membranes; 3 nM [3H]R-α-methyl histamine or [3H]Nα-methyl histamine, 30° C., 30 min
T2 construct: The source of the H3 receptors in this experiment was guinea pig brain; from tissue; host or cells: guinea pig brain membranes
T2 sequence (Q9JI35 whole entry): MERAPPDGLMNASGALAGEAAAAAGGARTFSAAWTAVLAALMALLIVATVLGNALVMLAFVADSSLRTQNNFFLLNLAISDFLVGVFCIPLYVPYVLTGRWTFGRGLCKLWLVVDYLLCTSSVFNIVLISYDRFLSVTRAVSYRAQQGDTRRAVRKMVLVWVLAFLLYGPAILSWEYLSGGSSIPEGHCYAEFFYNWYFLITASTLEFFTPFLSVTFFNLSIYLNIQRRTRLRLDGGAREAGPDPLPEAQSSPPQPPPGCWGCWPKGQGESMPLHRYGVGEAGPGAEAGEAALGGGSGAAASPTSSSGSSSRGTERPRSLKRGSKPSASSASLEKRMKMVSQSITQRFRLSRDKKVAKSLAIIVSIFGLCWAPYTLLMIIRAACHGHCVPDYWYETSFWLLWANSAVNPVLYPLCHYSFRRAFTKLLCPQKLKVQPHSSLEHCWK
Protocol: as §1
The animals weighed 400-600 g. The brain tissue was homogenized with a solution of 50 mM Tris, pH 7.5. The final concentration of tissue in the homogenization buffer was 10% w/v. The homogenates were centrifuged at 1,000×g for 10 min. in order to remove clumps of tissue and debris. The resulting supernatants were then centrifuged at 50,000×g for 20 min. in order to sediment the membranes, which were next washed three times in homogenization buffer (50,000×g for 20 min. each). The membranes were frozen and stored at −70° C. until needed.
as §2, with “All incubations were performed in duplicate and the standard error was always less than 10%. Compounds that inhibited more than 70% of the specific binding of radioactive ligand to the receptor were serially diluted to determine a Ki (nM).” left out

| SMILES | Food intake Inhibition (%) (mice fed a high-fat diet) | Weight Gain Inhibition (%) (mice fed a high-fat diet) | Ki [1] | Ki [2] |
| --- | --- | --- | --- | --- |
| Nc1cc(CN2CCC(Oc3ccc(-n4c(-c5ccccn5)nc5cccnc54)cc3)CC2)ccn1 [Compound 4A] | 15.9% | 74.1% |  |  |
| CN1CCN(c2ccc(OC3CCN(Cc4ccnc(N)c4)CC3)cc2)CC1 [Compound 22A] | 11.2% | 42.4% |  |  |
| Nc1cc(CN2CCC(Oc3ccc(-n4c(-c5ncccc5F)nc5cccnc54)cc3)CC2)ccn1 [Compound 69A] |  |  | 0.6 nM | 18 nM |
| Nc1cc(CN2CCC(Oc3ccc(-n4c(C(F)(F)C(F)(F)F)nc5cccnc54)cc3)CC2)ccn1 [Compound 36A] | 12.7% | 58.0% |  |  |
